Here are results for one compound from patent publication US5866576A, “Epoxide-containing compounds” (Cell Therapeutics, Inc., priority 1997, dated 1999).

SMILES strings stand for the structures.

For assay [1], the system named is normal human bone marrow stromal cells (MSC). Description: human bone marrow stromal cell (MSC) proliferation in response to PDGF BB and IL-1α. In kind it is cell-based. Particulars: Table III, PDGF BB 50 ng/ml and IL-1α 10 ng/ml. The procedure, abridged:
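Serum-starved (20–24 h) normal human bone marrow stromal cells preincubated 1 h with compound, then stimulated with PDGF BB (50 ng/ml) and IL-1α (10 ng/ml) plus 3H-thymidine for 24 h. Proliferation read as 3H-thymidine incorporation into DNA; IC50 derived per compound.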

In another assay the test system is Balb/3T3 cells. Description: PDGF-stimulated Balb/3T3 cell proliferation. In kind it is cell-based. Particulars: FIGS. 8A (1409), 8B (1560); PDGF/BB. How it is done: Balb/3T3 cells respond vigorously to PDGF stimulation, and are useful in vitro models for further study of PDGF-induced proliferation. Disregulated PDGF-proliferative response has been linked to a variety of diseases, including, e.g., restenosis, atherosclerosis, fibrosis, and tumor cell angiogenesis.
Balb/3T3 cells were maintained in exponential growth. The cells were removed from a flask with EDTA and plated into 96 well plates at 3000 cells/well. After 48 hours, the media was removed, the cells washed once with PBS and serum free media and the cultures allowed to rest for a 24 hour period. Inventive compounds were added to the wells containing media and Balb/3T3 cells one hour prior to incubation with PDGF/BB, added at constant 10 μM concentrations along with 1 μ Ci 3-H-thymidine dye. Cells were subsequently incubated for 18-24 hours, harvested, and incorporated thymidine assessed on a Packard Topcount to determine degree of cell proliferation. Data obtained in this assay was used to determine experimental 50% inhibition concentrations for the inventive compounds tested.

As for `Cn1cnc2c1c(=O)n(CCCCCCCC1CO1)c(=O)n2C` (centres unmarked) [Compound 1560, 1-(8,9-Oxidononyl)-3,7-dimethylxanthine], 6.6 µM corresponded to half-maximal inhibition in assay [1] (IC50). Besides, in the assay on Balb/3T3 cells, the “inhibition of Balb/3T3 proliferation” value is “inhibit Balb/3T3 proliferation”.
